The text below walks through data of patent US20210047622A1, “METHOD FOR OBTAINING AN ANIMAL MODEL FROM CONDITIONALLY REPROGRAMMED CELLS AND USE OF THE ANIMAL MODEL FOR SCREEING ANTI-TUMOR DRUGS” (Shanghai Lide Biotech Co., Ltd., priority 2018, published 2021).

Common to all, as to assay type: in vivo, human
Assay [1] deals with MDX203 Mini-PDX models (conditional reprogramming cells from a gallbladder carcinoma patient). The assay can be described thus: Anti-tumor efficacy in MDX203 Mini-PDX model. To be noted: Mini-PDX devices s.c. in nude mice, CTG cell viability day 7, doses, routes and schedules per Table 15.
Excerpt: (§2) Conditional reprogramming cells from MDX133, MDX154, MDX164, MDX165, MDX168, MDX169, MDX174, MDX186, MDX189, MDX203 were collected separately. MDX133 originated from a gastric cancer patient, MDX154 model originated from a gallbladder carcinoma patient, MDX164 model originated from a glioblastoma patient, MDX165 model originated from a glioblastoma patient, MDX168 model originated from a gallbladder carcinoma patient, MDX169 model originated from a lung cancer patient, MDX174 model originated from a lung cancer patient, MDX186 model originated from a pancreatic cancer patient, MDX189 model originated from a esophagus cancer patient, MDX203 model originated from a gallbladder carcinoma patient.
(§3) Wash the tumor tissue sample with buffer solution and remove away non-tumor tissue and necrotic tumor tissue in biosafety cabinet. Cut the tumor into 1˜3 mm3 fragments, suspend pellet with 1× collagenase solution and incubate in 37° C. for 1-2 hours. Collect single cells through 70 uM strainer, count cell numbers to calculate tumor cell concentration (See 9. Tumor cell concentration obtained from surgery and biopsy/needle biopsy). Cultivate the cells with conditional reprogramming medium, after tumor cells proliferation, and harvest the conditional reprogramming cells.
(§4) Suspend tumor tissues obtained from biopsy/needle biopsy in 1× collagenase solution and incubate in 37° C. for 1-2 hours. Collect single cells through 70 uM strainer, count cell numbers to calculate tumor cell concentration (See 9. Tumor cell concentration obtained from surgery and biopsy/needle biopsy). Cultivate the cells with conditional reprogramming medium, after tumor cells proliferation, and harvest the conditional reprogramming cells.
(§5) The cells suspension was filled into Mini-PDX device and the devices were inoculated subcutaneously into both flanks of Nu/Nu-nude mice, to establish the Mini-PDX model. The inoculation day was defined as day 0. Mice were randomized in groups according to the bodyweights and the treatments were initiated at day 0.
(§6) • 6.4.1 Body weight were measured every day, the treatment periods of these studies were 7 days, at the termination, all mice were euthanized and the Mini-PDX devices were removed for CTG (cell viability) assay. Tumor relative proliferation rate (%) is the indication of the anti-tumor activity. • 6.4.2 When VCd7−Vd0>0, Tumor relative proliferation rate (%)=(VTd7−Vd0)/(VCd7−Vd0)×100%; When VCd7−Vd0<0, Tumor relative proliferation rate (%)=VTd7/VCd7×100% (VTd7: the cell viability on day 7 of treatment group; VCd7: the cell viability on day 7 of control group; Vdo: the cell viability on day 0).
Assay [2] has as its system MDX168 Mini-PDX models (conditional reprogramming cells from a gallbladder carcinoma patient). The assay can be described thus: Anti-tumor efficacy in MDX168 Mini-PDX model. To be noted: Mini-PDX devices s.c. in nude mice, CTG cell viability day 7, doses, routes and schedules per Table 10.
Excerpt: as §2, §3, §4, §5, §6
Assay [3] has as its system MDX186 Mini-PDX models (conditional reprogramming cells from a pancreatic cancer patient). Put plainly: Anti-tumor efficacy in MDX186 Mini-PDX model. As to conditions: Mini-PDX devices s.c. in nude mice, CTG cell viability day 7, doses, routes and schedules per Table 13.
Excerpt: as §2, §3, §4, §5, §6
The subject of assay [4] is MDX154 Mini-PDX models (conditional reprogramming cells from a gallbladder carcinoma patient). Put plainly: Anti-tumor efficacy in MDX154 Mini-PDX model. As to conditions: Mini-PDX devices s.c. in nude mice, CTG cell viability day 7, doses, routes and schedules per Table 7. The source says: (§1) The inoculation day was defined as day 0.
Assay [5] relates to MDX133 Mini-PDX models (conditional reprogramming cells from a gastric cancer patient). The assay can be described thus: Anti-tumor efficacy in MDX133 Mini-PDX model. To be noted: Mini-PDX devices s.c. in nude mice, CTG cell viability day 7, doses, routes and schedules per Table 6.
Excerpt: as §2, §3, §4, §5, §6
In assay [6] the test system is MDX123 Mini-PDX models (conditional reprogramming cells from a colonrectal cancer patient). Put plainly: Anti-tumor efficacy in MDX123 Mini-PDX model. As to conditions: Mini-PDX devices s.c. in nude mice, CTG cell viability day 7, i.p., doses and schedules per Table 5.
Excerpt: as §1

The subject of assay [7] is MDX095 Mini-PDX models (conditional reprogramming cells from a peritoneal malignant tnesoshelioma patient). The assay can be described thus: Anti-tumor efficacy in MDX095 Mini-PDX model. To be noted: Mini-PDX devices s.c. in nude mice, CTG cell viability day 7, i.p., doses and schedules per Table 3. The source says:
Conditional reprogramming cells from […]123 were collected separately. […] The inoculation day was defined as day 0.

For assay [8], the system named is MDX165 Mini-PDX models (conditional reprogramming cells from a glioblastoma patient). The assay can be described thus: Anti-tumor efficacy in MDX165 Mini-PDX model. As to conditions: Mini-PDX devices s.c. in nude mice, CTG cell viability day 7, 50 mg/kg p.o. qd*5.
Excerpt: as §1

Assay [9] deals with MDX164 Mini-PDX models (conditional reprogramming cells from a glioblastoma patient). Put plainly: Anti-tumor efficacy in MDX164 Mini-PDX model. To be noted: Mini-PDX devices s.c. in nude mice, CTG cell viability day 7, 50 mg/kg p.o. qd*5.
Excerpt: as §1

Values joined by “and” are separate entries in the source; they are usually repeats but may differ in a detail not shown here. Identical values can stand only once.

As for `CCc1c2c(nc3ccc(OC(=O)N4CCC(N5CCCCC5)CC4)cc13)-c1cc3c(c(=O)n1C2)COC(=O)[C@]3(O)CC` [Irinotecan], the “T/C % (Tumor relative proliferation rate)” value in assay [1] amounted to 48%; in assay [2], 12%; in assay [3] it was 5%; in assay [4], 227%; in [5] it was 72%; in assay [6], 68%.
Consider `Nc1ccn([C@@H]2O[C@H](CO)[C@@H](O)C2(F)F)c(=O)n1` [Gemcitabine], for which the “T/C % (Tumor relative proliferation rate)” value in [1] is recorded as 77%; in assay [2] it was 53%; in assay [3] it was 83%; in assay [4], 100%.
Consider `O=c1[nH]cc(F)c(=O)[nH]1` [5-Fu], for which the “T/C % (Tumor relative proliferation rate)” value in assay [1] is 83%; in assay [2], 146%; in [3], 90%; in assay [4], 111%; in assay [5] it was 103%; in [6] it was 75%. Further, the “T/C % (Tumor relative proliferation rate)” value in assay [7] stood at 80%.
With `N.N.[Cl][Pt][Cl]` [Cisplatin], the “T/C % (Tumor relative proliferation rate)” value in assay [7] worked out at 128%.
For `Cc1nc2ccc(CN(C)c3ccc(C(=O)N[C@@H](CCC(=O)O)C(=O)O)s3)cc2c(=O)[nH]1` [Raltitrexed], the “T/C % (Tumor relative proliferation rate)” value in assay [6] was 92%.
`Cn1nnc2c(C(N)=O)ncn2c1=O` [Temozolomide]: the “T/C % (Tumor relative proliferation rate)” value is given as 29% in [8] and 102% in [9].
Consider `COc1cccc2c1C(=O)c1c(O)c3c(c(O)c1C2=O)C[C@@](O)(C(=O)CO)C[C@@H]3O[C@H]1C[C@H](N)[C@@H](O)[C@H](C)O1` [Epirubicin], for which, in assay [7], the “T/C % (Tumor relative proliferation rate)” value was 120%.
Turning to `COc1cc([C@@H]2c3cc4c(cc3[C@@H](O[C@@H]3O[C@@H]5CO[C@@H](C)O[C@H]5[C@H](O)[C@H]3O)[C@H]3COC(=O)[C@H]23)OCO4)cc(OC)c1O` [Etoposide], in assay [7], the “T/C % (Tumor relative proliferation rate)” value is 109%.
As to `CC(=O)O[C@H]1C(=O)[C@@]2(C)[C@H]([C@H](OC(=O)c3ccccc3)[C@]3(O)C[C@H](OC(=O)[C@H](O)[C@@H](NC(=O)c4ccccc4)c4ccccc4)C(C)=C1C3(C)C)[C@]1(OC(C)=O)CO[C@@H]1C[C@@H]2O` [Paclitaxel], the results for the “T/C % (Tumor relative proliferation rate)” value in assay [5] and in assay [7] were 52% and 79%, respectively.
In the case of “Bevazulimab: Test drug of the MDX123 groups, printed Bevacizumab in Table 5”, the “T/C % (Tumor relative proliferation rate)” value in [6] was 76% and 101%.
For `O=C1[O][Pt]2([NH][C@@H]3CCCC[C@H]3[NH]2)[O]C1=O` [Oxaliplatin], the “T/C % (Tumor relative proliferation rate)” value stood at 43% in assay [1]; 75% in [2]; 47% in [3]; 174% in assay [4]; 89% in [5]; 61% in assay [6].
